Assay results from a melting point compilation (Tetko et al.).

Details: a range is the spread between reports

Row | Compound | melting point [°C]
1 | O=C1c2ccccc2-c2cccc3cccc1c23 | 170 to 173
2 | CCCCC(=O)CC | -39 to -37
3 | NNC=O | 55 to 57
4 | OC1CCCCC1 | 21 to 25.9
5 | BrCc1ccc(CBr)cc1 | 142 to 144
6 | C/C=C/CC(C)C | -124
7 | CCCCCCC(=O)OCC | -66.1 to -66
8 | O=[N+]([O-])c1cc(Cl)cc(Cl)c1 | 64 to 65.4
9 | O=C1CCCC(=O)C1 | 103 to 106
10 | CCCCCC(C)C | -109 to -105
11 | N#CCc1ccccc1Cl | 23 to 24
12 | CCCSSCCC | -86 to -85.6
13 | C=CC(=O)NC(C)(C)CC(C)=O | 55 to 57.5
14 | FC(F)(F)CC(F)(F)F | -98 to -94.2
15 | CCCCSCCCC | -80 to -79.7
16 | BrCC(Br)c1ccccc1 (configuration not stated) | 72 to 75
17 | CCCCCCBr | -85 to -84.7
18 | O=P(Oc1ccccc1)(Oc1ccccc1)Oc1ccccc1 | 50 to 50.5

Row | Compound | melting point [°C]
19 | Oc1cc(Cl)cc(Cl)c1 | 66 to 68
20 | C1CCCCCCCCCCCCCC1 | 61.3 to 62
21 | O=[N+]([O-])c1cccc2cccc([N+](=O)[O-])c12 | 172 to 173
22 | CC(C)C(C(C)C)C(C)C | -82 to -81.7
23 | C=CC=O | -87.7 to -87
24 | ClCc1ccccc1 | -45 to -43
25 | NC(=S)c1c(Cl)cccc1Cl | 151 to 152
26 | CCCCC1CCCCC1 | -78 to -74.7
27 | CC#CCC(C)C | -93 to -92.9
28 | O=[N+]([O-])c1cc(Cl)c(Cl)c(Cl)c1 | 70 to 72.5
29 | O=S(=O)(c1ccccc1)c1ccccc1 | 128
30 | CCCCCCCCN | -1 to 0
31 | CC[N+](=O)[O-] | -89.5 to -89
32 | CC(C)CC(C)C(C)C (configuration not stated) | -128
33 | CC1CC=CC1 | -161
34 | CC1CCC1 | -162
35 | Cc1ccc(N=C=S)cc1 | 25 to 25.5
36 | C=CCCC=C | -141

Next, values leading:

Row | melting point [°C] | Compound
37 | 70 to 72 | CN(C)c1cccc2c(S(=O)(=O)Cl)cccc12
38 | 51 to 52 | COc1cc(Cl)ccc1N
39 | 214 to 216 | Nc1cc(C(=O)O)ccc1Cl
40 | 126 to 127 | COc1ccc(NC(=O)N(C)C)cc1Cl
41 | 69 to 70 | CCCCCCC(O)C(=O)O (configuration not stated)
42 | 237 to 242 | O=C(O)c1ccc([N+](=O)[O-])cc1
43 | 125 to 128 | Nc1ncccn1
44 | 206 to 208 | NC(=O)c1cccc2ccccc12
45 | 108 to 109 | C=CCc1ccccc1OCC(O)CNC(C)C (configuration not stated)
46 | 128 to 129 | Cc1cc(O)ccc1O
47 | 53 to 56.5 | O=C(Cl)C(c1ccccc1)c1ccccc1
48 | 200 to 203 | O=C1Nc2ccccc2C1=O
49 | -96 to -95.5 | CCc1cccc(C)c1
50 | 112 to 116 | c1ccc2c(c1)Cc1ccccc1-2
51 | 258 to 262 | OCC(CO)(CO)CO
52 | 178 to 183 | CC1=C(/C=C/C(C)=C/C=C/C(C)=C/C=C/C=C(C)/C=C/C=C(C)/C=C/C2=C(C)CCCC2(C)C)C(C)(C)CCC1

Row | melting point [°C] | Compound
53 | 50 to 51 | O=Cc1ccnc2ccccc12
54 | 24 to 25 | CCCCCCCCCCc1ccc(N)cc1
55 | 9 to 10 | Cc1ccc(C)c(Br)c1
56 | 147 to 150 | COc1ccc(C=O)c(C(=O)O)c1OC
57 | 180 to 183 | CN(C)c1ccc(/N=N/c2ccccc2C(=O)O)cc1
58 | 201 to 202 | O=C(c1ccc(O)cc1O)c1ccc(O)cc1O
59 | 146 to 149 | O=C(O)Cc1ccccc1O
60 | 81 | Cc1ccc2n[nH]nc2c1
61 | -64 to -63.6 | CCCc1ccc(C)cc1
62 | 270 to 271 | O=C1OC(=O)c2cccc3cccc1c23
63 | 41 to 43 | Cc1cccc(N)n1
64 | 232 to 234 | Cc1nc(-c2ccc(-c3nc(C)c(-c4ccccc4)o3)cc2)oc1-c1ccccc1
65 | 167 to 168 | Nc1cc(Cl)c(O)c(Cl)c1
66 | 28 to 30 | CCOC(=O)c1ccccc1[N+](=O)[O-]
67 | 127 | O=C(O)CCCC(=O)c1ccccc1
